Patent publication US20120016019A1, “PHARMACEUTICAL COMPOSITION FOR TREATING OR PREVENTING CANCER” (priority 2010, published 2012)
Values joined by “and” are separate entries in the source; they are usually repeats but may differ in a detail not shown here. Equal values may be shown once. Read-outs that look alike come from different tables or passages of the source.

How the values were obtained:
TT = test: Cell counts, TT; type: cell-based
Method: (§1) As a result, LC-50 curves were generated in the 1st week.
(§2) In the 2nd plate, 7 d of the 1st week (LC-50) is the same as 0 h of the 2nd week (recovery).
(§3) At 0 h of the 2nd week, medium was exchanged with untreated medium for the remainder of the experiment. […] As a result, Recovery curves were generated in the 2nd week.

CCD-1074sk = type: cell-based; conditions: for cell counts: single count
Method: as §1, §2, §3

MDA-MB-231 = test: Cell counts, MDA-MB-231; type: cell-based
Method: as §1, §2
At 0 h of the 2nd week, medium was exchanged with untreated medium for the remainder of the experiment. The untreated controls were not measured in the 2nd week (recovery) due to overconfluence by the end of the 1st week. As a result, Recovery curves were generated in the 2nd week.

PC-3 [1] = conditions: for The absorbance, Mean value / The absorbance / The absorbance, group - Blank: PC-3, XTT 500 nm; for The absorbance: single wells
Method: Cancer cell lines HCC 1419, MCF-7, MDA-MB-468, SKBR3, PC3, HT1299, Saos-2, C-6, AsPc, MDA-MB-231, RKO, HeLa and TT, and normal cell lines HME 50 HT, BJ and CCD-1074sk were tested for changes in metabolism (XTT assay) and cell death (cell counts).
Cells were plated into 48-well Corning CellBind™ plates at densities of 20,000 cells for normal cells and 10,000˜20,000 cells for cancer cells. 24 to 48 h after plating, cells were treated with the composition according to the invention at concentrations of 4.5e-2M. The first time point treated with the composition of the invention is 0 h. At 3 days after the first treatment with the composition of the invention, medium was changed and the composition of the invention at the same concentrations were added to the cultured cells.
The XTT assay is an accepted analysis technique for viability and cytotoxicity of anticancer drugs or other pharmaceutical compositions. Cells were seeded in a 96-well tissue culture plate at a density of 10,000 cells for normal cells and 5,000 cells for cancer cells. After incubation period, the formazan dye formed was quantitated using an ELISA reader. The optimal wavelength used in experiments was 500 nm, and it was measured at 0 h, 12 h, 24 h, 48 h, 4 d and 7 d, respectively. The obtained values were generated using the software SoftMax Pro 4.8.
The cell viability was calculated according to the manufacturer's instructions as follows (the term “blank” means XTT in medium only):
Cellular cytotoxicity was calculated according to the manufacturer's instructions as follows: […]

PC-3 [2] = test: Cell counts, PC-3; type: cell-based, human; conditions: for cell counts: single wells
Method: Cells were harvested using Trypsin-EDTA at the designated time points. […] Two 48-well plates were used per cell line, and they were measured at 0 h, 12 h, 24 h, 48 h, 4 d and 7 d, respectively.
In the 1st plate, cells were treated with the composition according to the invention and medium was changed at 0 h and 3 d.

CC(=O)O[C@H]1C(=O)[C@@]2(C)[C@H]([C@H](OC(=O)c3ccccc3)[C@]3(O)C[C@H](OC(=O)[C@H](O)[C@@H](NC(=O)c4ccccc4)c4ccccc4)C(C)=C1C3(C)C)[C@]1(OC(C)=O)CO[C@@H]1C[C@@H]2O [Taxol]
cell counts (TT; 1st week (LC50), 0 h): 133000 and 117500 and 123000 | cell counts, Mean value (TT; 1st week (LC50), 0 h): 124500 | cell counts, Mean value (TT; 1st week (LC50), 24 h): 106333 | cell counts (TT; 1st week (LC50), 48 h): 175000 and 109000 and 114000 | cell counts, Mean value (TT; 1st week (LC50), 48 h): 132667 | cell counts (TT; 1st week (LC50), 4 d): 84000 and 72500 and 56000 | cell counts, Mean value (TT; 1st week (LC50), 4 d): 70833 | cell counts (TT; 1st week (LC50), 7 d): 35000 and 26000 | cell counts, Mean value (TT; 1st week (LC50), 7 d): 32000 | cell counts, Mean value (TT; 2nd week (recovery), 0 h, mean value): 44000 | cell counts (TT; 2nd week (recovery), 0 h, single count): 44000 and 53000 and 35000 | cell counts, Mean value (TT; 2nd week (recovery), 24 h, mean value): 17667 | cell counts, Mean value (TT; 2nd week (recovery), 48 h, mean value): 30667 | cell counts (TT; 2nd week (recovery), 48 h, single count): 35000 and 31000 and 26000 | cell counts, Mean value (TT; 2nd week (recovery), 4 d, mean value): 16667 | cell counts (TT; 2nd week (recovery), 4 d, single count): 15000 and 12500 | cell counts, Mean value (TT; 2nd week (recovery), 7 d, mean value): 11500 | cell counts, Mean value (CCD-1074sk; 1st week (LC50), 0 h): 8000 | cell counts (CCD-1074sk; 1st week (LC50), 0 h): 9000 and 7000 | cell counts, Mean value (CCD-1074sk; 1st week (LC50), 24 h): 15500 | cell counts (CCD-1074sk; 1st week (LC50), 24 h): 15000 and 16000 | cell counts, Mean value (CCD-1074sk; 1st week (LC50), 48 h): 10500 | cell counts (CCD-1074sk; 1st week (LC50), 48 h): 10000 and 11000 | cell counts, Mean value (CCD-1074sk; 1st week (LC50), 4 d): 4500 | cell counts (CCD-1074sk; 1st week (LC50), 4 d): 6000 and 3000 | cell counts, Mean value (CCD-1074sk; 1st week (LC50), 7 d): 11500 | cell counts (CCD-1074sk; 1st week (LC50), 7 d): 11000 and 12000 | cell counts, Mean value (CCD-1074sk; 2nd week (recovery), 0 h): 10500 | cell counts (CCD-1074sk; 2nd week (recovery), 0 h): 10000 and 11000 | cell counts, Mean value (CCD-1074sk; 2nd week (recovery), 48 h): 8000 | cell counts (CCD-1074sk; 2nd week (recovery), 48 h): 10000 and 6000 | cell counts, Mean value (CCD-1074sk; 2nd week (recovery), 4 d): 5500 | cell counts (CCD-1074sk; 2nd week (recovery), 4 d): 4000 and 7000 | cell counts (CCD-1074sk; 2nd week (recovery), 7 d): 18000 and 9000 | cell counts (MDA-MB-231; 1st week (LC50), 0 h): 47000 and 42000 and 53000 | cell counts, Mean value (MDA-MB-231; 1st week (LC50), 0 h): 47333 | cell counts (MDA-MB-231; 1st week (LC50), 24 h): 32000 and 39000 and 22000 | cell counts, Mean value (MDA-MB-231; 1st week (LC50), 24 h): 31000 | cell counts (MDA-MB-231; 1st week (LC50), 48 h): 13000 and 16000 and 23000 | cell counts, Mean value (MDA-MB-231; 1st week (LC50), 48 h): 17333 | cell counts (MDA-MB-231; 1st week (LC50), 4 d): 19500 and 24000 and 26500 | cell counts, Mean value (MDA-MB-231; 1st week (LC50), 4 d): 23333 | cell counts, Mean value (MDA-MB-231; 1st week (LC50), 7 d): 9667 | growth of the cell population (MDA-MB-231; 2nd week (recovery)): begins to grow and shows the sign of recovering | cell counts (MDA-MB-231; 2nd week (recovery), 0 h): 12500 and 17500 and 22000 | cell counts, Mean value (MDA-MB-231; 2nd week (recovery), 0 h): 17333 | cell counts (MDA-MB-231; 2nd week (recovery), 24 h): 16000 and 32000 and 24000 | cell counts, Mean value (MDA-MB-231; 2nd week (recovery), 24 h): 24000 | cell counts, Mean value (MDA-MB-231; 2nd week (recovery), 48 h): 24500 | cell counts, Mean value (MDA-MB-231; 2nd week (recovery), 4 d): 22167 | cell counts, Mean value (MDA-MB-231; 2nd week (recovery), 7 d): 32000 | The absorbance, Mean value (PC-3 [1]; 1st week (LC50), 0 h): 0.693 | The absorbance (PC-3 [1]; 1st week (LC50), 0 h): 0.7147 and 0.7027 and 0.6625 | The absorbance, Mean value (PC-3 [1]; 1st week (LC50), 12 h): 0.567 | The absorbance (PC-3 [1]; 1st week (LC50), 12 h): 0.5126 and 0.6101 and 0.5779 | The absorbance, Mean value (PC-3 [1]; 1st week (LC50), 24 h): 0.692 | The absorbance, group - Blank (PC-3 [1]; 1st week (LC50), 24 h): 0.5326 | The absorbance (PC-3 [1]; 1st week (LC50), 24 h): 0.7192 and 0.6542 and 0.7011 | The absorbance, Mean value (PC-3 [1]; 1st week (LC50), 48 h): 1.747 | The absorbance, group - Blank (PC-3 [1]; 1st week (LC50), 48 h): 1.5885 | The absorbance (PC-3 [1]; 1st week (LC50), 48 h): 1.9128 and 1.6455 and 1.6838 | The absorbance, Mean value (PC-3 [1]; 1st week (LC50), 4 d): 1.266 | The absorbance, group - Blank (PC-3 [1]; 1st week (LC50), 4 d): 1.1072 | The absorbance (PC-3 [1]; 1st week (LC50), 4 d): 1.1723 and 1.5491 and 1.0768 | The absorbance, Mean value (PC-3 [1]; 2nd week (recovery), 0 h): 0.5354 | The absorbance (PC-3 [1]; 2nd week (recovery), 0 h): 0.5937 and 0.5232 and 0.4893 | The absorbance, Mean value (PC-3 [1]; 2nd week (recovery), 24 h): 1.6693 | The absorbance, group - Blank (PC-3 [1]; 2nd week (recovery), 24 h): 1.5104 | The absorbance (PC-3 [1]; 2nd week (recovery), 24 h): 1.3804 and 1.6987 and 1.9288 | The absorbance, Mean value (PC-3 [1]; 2nd week (recovery), 48 h): 0.7660 | The absorbance, group - Blank (PC-3 [1]; 2nd week (recovery), 48 h): 0.6071 | The absorbance (PC-3 [1]; 2nd week (recovery), 48 h): 0.795 and 0.7948 and 0.7081 | The absorbance, Mean value (PC-3 [1]; 2nd week (recovery), 4 d): 1.2875 | The absorbance, group - Blank (PC-3 [1]; 2nd week (recovery), 4 d): 1.1286 | The cytotoxicity (PC-3 [1]; human, 12 h, 220 nM): 0.5920 | The viability (PC-3 [1]; human, 12 h, 220 nM): 0.3649 | killing of PC-3 cells (PC-3 [2]): relatively resistant to Taxol | cell counts, Mean value (PC-3 [2]; 1st week (LC50), 0 h): 6580 | cell counts, Mean value (PC-3 [2]; 1st week (LC50), 12 h): 5462 | cell counts (PC-3 [2]; 1st week (LC50), 12 h): 4805 and 5805 and 5775 | cell counts, Mean value (PC-3 [2]; 1st week (LC50), 24 h): 5205 | cell counts (PC-3 [2]; 1st week (LC50), 24 h): 4360 and 4820 and 6435 | cell counts, Mean value (PC-3 [2]; 1st week (LC50), 48 h): 2013 | cell counts (PC-3 [2]; 1st week (LC50), 48 h): 1821 and 1969 | cell counts, Mean value (PC-3 [2]; 1st week (LC50), 4 d): 1029 | cell counts (PC-3 [2]; 1st week (LC50), 4 d): 861 and 975 and 1250 | cell counts, Mean value (PC-3 [2]; 2nd week (recovery), 0 h): 514 | cell counts (PC-3 [2]; 2nd week (recovery), 0 h): 392 and 389 and 760 | cell counts, Mean value (PC-3 [2]; 2nd week (recovery), 24 h): 305 | cell counts (PC-3 [2]; 2nd week (recovery), 24 h): 269 and 328 and 318 | cell counts, Mean value (PC-3 [2]; 2nd week (recovery), 48 h): 350 | cell counts (PC-3 [2]; 2nd week (recovery), 48 h): 369 and 303 and 378 | cell counts, Mean value (PC-3 [2]; 2nd week (recovery), 4 d): 1324 | cell counts (PC-3 [2]; 2nd week (recovery), 4 d): 1574 and 1376 and 1023 | cell counts, Mean value (PC-3 [2]; 2nd week (recovery), 7 d): 483
